Reference: paper PMC3969711 (Chembiochem : a European journal of chemical biology, 2014)
Values joined by “and” are separate entries in the source; they are usually repeats but may differ in a detail not shown here. Identical values can stand only once. Like-named read-outs stand apart in the source and are kept apart here.

Key:
wild-type P. aeruginosa = conditions: cited from earlier work
LasR [1] = target: T1, LasR (Pseudomonas aeruginosa, UniProt P25084); conditions: in E. coli, related reporter constructs; cited from earlier work
T1 sequence (P25084 whole entry): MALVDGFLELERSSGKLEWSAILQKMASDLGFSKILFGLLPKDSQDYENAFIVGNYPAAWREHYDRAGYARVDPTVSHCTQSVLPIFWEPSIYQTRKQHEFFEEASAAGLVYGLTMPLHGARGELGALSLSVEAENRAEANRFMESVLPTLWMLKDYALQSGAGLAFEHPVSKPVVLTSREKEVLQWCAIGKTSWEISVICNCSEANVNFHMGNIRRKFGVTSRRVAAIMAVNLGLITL

LasR [2] = target: T1, LasR; conditions: in P. aeruginosa, related reporter constructs; cited from earlier work
LasR [3] = target: T1, LasR; format: cell-based, P. aeruginosa; conditions: for Fold change of IC50: IC50 in PAO-JP2 vs PAO-JG21
LasR [4] = target: T1, LasR; test: LasR competitive antagonism reporter assay in pump-mutant PAO-JG21; format: cell-based, P. aeruginosa; conditions: PAO-JG21, 25 µg/mL PAβN

SMILES | inhibition of pyocyanin production (wild-type P. aeruginosa) | inhibition of LasR activity (LasR [1]) | inhibition of LasR activity (LasR [2]) | Fold change of IC50 (LasR [3]) | effect of pump inhibitor PAβN on LasR inhibitory potency (LasR [4]) | effect of pump inhibitor PAβN on LasR inhibitory potency (LasR [3]; PAO-JP2, 25 µg/mL PAβN) | maximum inhibition of LasR activity (LasR [3]; PAO-JP2 harboring plasI-LVAgfp, dose-response (Figure S-14))
CCCCCCCCCC(=O)CC(=O)Nc1ccccc1 [3-oxo-C12-aniline] | strongly inhibiting pyocyanin production | 55% | 30% | 6.5 | – | – | –
Cc1cc2nc(N)[nH]c2cc1C [DMABI, 5,6-dimethyl-2-aminobenzimidazole] | – | – | – | 1.6 | no effect | no effect | ~ 40% and 40%
